Experiments:
Assay type in all cases: cell-free
[1] = target: T1, Interleukin-1 receptor-associated kinase 3 (Homo sapiens) (UniProt Q9Y616); experiment: Inhibition of human IRAK3 in HL-60 cells lysate assessed as reduction of labeling of acyl-phosphate ATP probe at 100 nM
T1 sequence (whole entry): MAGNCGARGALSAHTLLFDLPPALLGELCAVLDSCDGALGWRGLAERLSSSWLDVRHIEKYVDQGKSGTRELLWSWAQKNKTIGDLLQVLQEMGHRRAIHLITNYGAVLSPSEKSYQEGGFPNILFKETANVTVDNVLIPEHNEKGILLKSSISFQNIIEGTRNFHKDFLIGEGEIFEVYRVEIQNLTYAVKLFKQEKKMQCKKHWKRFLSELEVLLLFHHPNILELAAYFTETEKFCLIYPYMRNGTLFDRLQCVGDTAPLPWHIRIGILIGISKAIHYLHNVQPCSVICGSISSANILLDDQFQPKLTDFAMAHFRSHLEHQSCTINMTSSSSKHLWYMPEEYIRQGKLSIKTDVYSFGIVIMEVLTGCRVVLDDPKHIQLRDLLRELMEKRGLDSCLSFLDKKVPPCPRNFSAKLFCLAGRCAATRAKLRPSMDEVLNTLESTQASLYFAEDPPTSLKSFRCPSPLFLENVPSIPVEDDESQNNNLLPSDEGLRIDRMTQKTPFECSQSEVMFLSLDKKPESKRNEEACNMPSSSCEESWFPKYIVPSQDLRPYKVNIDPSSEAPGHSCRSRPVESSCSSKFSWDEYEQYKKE

[2] = target: T2, Eukaryotic translation initiation factor 2-alpha kinase 3 (Homo sapiens) (UniProt Q9NZJ5); experiment: Inhibition of human PEK in HL-60 cells lysate assessed as reduction of labeling of acyl-phosphate ATP probe at 100 nM
T2 sequence (whole entry): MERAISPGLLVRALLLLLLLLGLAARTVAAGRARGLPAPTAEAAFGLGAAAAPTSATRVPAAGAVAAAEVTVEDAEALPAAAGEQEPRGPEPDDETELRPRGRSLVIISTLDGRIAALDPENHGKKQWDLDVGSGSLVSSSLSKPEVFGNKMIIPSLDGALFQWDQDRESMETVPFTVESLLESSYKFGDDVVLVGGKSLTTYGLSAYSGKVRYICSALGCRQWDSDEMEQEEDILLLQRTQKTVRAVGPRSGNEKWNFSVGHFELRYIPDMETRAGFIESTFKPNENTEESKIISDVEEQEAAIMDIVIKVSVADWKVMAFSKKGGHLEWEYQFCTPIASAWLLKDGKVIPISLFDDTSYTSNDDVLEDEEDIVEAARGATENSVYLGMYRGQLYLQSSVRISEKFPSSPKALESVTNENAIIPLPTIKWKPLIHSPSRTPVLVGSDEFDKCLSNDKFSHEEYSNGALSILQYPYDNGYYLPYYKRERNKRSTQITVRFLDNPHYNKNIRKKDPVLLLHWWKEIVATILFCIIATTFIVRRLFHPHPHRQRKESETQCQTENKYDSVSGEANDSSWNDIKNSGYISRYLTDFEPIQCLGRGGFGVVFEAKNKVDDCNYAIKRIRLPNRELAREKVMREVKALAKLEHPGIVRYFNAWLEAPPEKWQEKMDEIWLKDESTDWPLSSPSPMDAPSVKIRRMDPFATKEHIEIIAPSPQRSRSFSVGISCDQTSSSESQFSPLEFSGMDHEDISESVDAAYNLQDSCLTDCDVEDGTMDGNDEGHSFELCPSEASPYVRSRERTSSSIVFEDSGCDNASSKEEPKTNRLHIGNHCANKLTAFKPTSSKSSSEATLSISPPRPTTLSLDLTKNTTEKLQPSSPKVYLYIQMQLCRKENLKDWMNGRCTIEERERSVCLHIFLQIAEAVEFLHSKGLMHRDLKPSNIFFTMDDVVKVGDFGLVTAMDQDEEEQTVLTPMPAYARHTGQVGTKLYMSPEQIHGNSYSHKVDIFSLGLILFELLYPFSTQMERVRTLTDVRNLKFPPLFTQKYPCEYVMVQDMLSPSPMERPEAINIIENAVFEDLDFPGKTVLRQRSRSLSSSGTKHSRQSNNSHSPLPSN

[3] = target: Misshapen-like kinase 1 (Homo sapiens) (UniProt Q8N4C8); experiment: Inhibition of human ZC3/MINK in HL-60 cells lysate assessed as reduction of labeling of acyl-phosphate ATP probe at 100 nM
[4] = target: Mitogen-activated protein kinase 3 (Homo sapiens) (UniProt P27361); experiment: Inhibition of human Erk1 in HL-60 cells lysate assessed as reduction of labeling of acyl-phosphate ATP probe at 100 nM
[5] = target: T3, STE20-related kinase adapter protein alpha (Homo sapiens) (UniProt Q7RTN6); experiment: Inhibition of human STLK5 in HL-60 cells lysate assessed as reduction of labeling of acyl-phosphate ATP probe at 100 nM
T3 sequence (whole entry): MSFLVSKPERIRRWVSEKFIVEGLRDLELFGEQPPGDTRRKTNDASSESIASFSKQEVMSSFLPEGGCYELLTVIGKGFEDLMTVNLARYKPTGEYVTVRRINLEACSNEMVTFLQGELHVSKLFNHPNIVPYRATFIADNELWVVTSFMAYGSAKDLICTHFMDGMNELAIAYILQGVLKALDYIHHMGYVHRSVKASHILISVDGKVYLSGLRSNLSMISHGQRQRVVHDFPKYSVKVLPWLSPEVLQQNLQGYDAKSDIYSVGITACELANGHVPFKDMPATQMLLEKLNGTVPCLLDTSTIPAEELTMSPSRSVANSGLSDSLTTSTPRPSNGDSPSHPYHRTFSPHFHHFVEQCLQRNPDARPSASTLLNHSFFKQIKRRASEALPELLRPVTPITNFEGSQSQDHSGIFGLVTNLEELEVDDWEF

[6] = target: Dual specificity mitogen-activated protein kinase kinase 1 (Homo sapiens) (UniProt Q02750); experiment: Inhibition of human MAP2K1 in HL-60 cells lysate assessed as reduction of labeling of acyl-phosphate ATP probe at 100 nM
[7] = target: Phosphatidylinositol 4,5-bisphosphate 3-kinase catalytic subunit gamma isoform (Homo sapiens) (UniProt P48736); experiment: Inhibition of human PIK3CG in HL-60 cells lysate assessed as reduction of labeling of acyl-phosphate ATP probe at 100 nM

Measured: inhibition

Sequence of Mitogen-activated protein kinase 3 (Homo sapiens) (P27361 whole entry): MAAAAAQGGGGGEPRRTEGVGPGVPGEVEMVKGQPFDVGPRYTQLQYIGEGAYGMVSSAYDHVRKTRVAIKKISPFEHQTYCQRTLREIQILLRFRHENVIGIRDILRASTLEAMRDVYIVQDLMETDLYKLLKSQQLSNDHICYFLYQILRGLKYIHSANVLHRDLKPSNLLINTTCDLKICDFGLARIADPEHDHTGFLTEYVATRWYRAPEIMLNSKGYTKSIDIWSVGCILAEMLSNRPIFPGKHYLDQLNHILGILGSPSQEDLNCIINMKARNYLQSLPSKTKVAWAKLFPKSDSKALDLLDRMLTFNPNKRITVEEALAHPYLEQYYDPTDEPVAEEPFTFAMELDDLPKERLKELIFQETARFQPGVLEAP
Sequence of Phosphatidylinositol 4,5-bisphosphate 3-kinase catalytic subunit gamma isoform (Homo sapiens) (P48736 whole entry, looked up, canonical isoform): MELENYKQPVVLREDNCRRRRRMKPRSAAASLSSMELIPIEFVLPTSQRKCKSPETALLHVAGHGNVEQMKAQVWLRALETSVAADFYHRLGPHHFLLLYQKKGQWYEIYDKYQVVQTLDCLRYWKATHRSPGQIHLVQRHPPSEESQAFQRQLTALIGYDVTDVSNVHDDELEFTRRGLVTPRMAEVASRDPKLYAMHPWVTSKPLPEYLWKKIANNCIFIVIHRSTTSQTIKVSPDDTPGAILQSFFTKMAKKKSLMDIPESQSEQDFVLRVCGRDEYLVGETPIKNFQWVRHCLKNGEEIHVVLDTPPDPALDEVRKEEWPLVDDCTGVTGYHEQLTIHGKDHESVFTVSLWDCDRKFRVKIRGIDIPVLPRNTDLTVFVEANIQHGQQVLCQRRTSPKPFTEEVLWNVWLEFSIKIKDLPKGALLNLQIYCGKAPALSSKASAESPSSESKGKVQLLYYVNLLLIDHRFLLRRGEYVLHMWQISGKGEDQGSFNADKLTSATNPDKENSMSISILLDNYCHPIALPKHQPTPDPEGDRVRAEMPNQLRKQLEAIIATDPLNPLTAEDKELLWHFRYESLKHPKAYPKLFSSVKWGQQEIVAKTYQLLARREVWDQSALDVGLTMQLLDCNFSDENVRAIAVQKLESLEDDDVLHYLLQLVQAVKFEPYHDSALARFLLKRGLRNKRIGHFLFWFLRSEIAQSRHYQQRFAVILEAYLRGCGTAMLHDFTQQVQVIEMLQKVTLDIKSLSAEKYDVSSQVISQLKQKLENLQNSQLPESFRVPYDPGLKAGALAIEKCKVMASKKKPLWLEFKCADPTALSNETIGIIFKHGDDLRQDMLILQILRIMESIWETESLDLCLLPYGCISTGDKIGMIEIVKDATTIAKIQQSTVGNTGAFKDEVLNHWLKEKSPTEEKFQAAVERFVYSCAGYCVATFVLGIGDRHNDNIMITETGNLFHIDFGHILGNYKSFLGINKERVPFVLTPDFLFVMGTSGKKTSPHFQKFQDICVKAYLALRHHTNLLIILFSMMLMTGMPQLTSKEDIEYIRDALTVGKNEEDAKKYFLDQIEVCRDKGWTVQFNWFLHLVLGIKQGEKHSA
Sequence of Dual specificity mitogen-activated protein kinase kinase 1 (Homo sapiens) (Q02750 whole entry, canonical isoform): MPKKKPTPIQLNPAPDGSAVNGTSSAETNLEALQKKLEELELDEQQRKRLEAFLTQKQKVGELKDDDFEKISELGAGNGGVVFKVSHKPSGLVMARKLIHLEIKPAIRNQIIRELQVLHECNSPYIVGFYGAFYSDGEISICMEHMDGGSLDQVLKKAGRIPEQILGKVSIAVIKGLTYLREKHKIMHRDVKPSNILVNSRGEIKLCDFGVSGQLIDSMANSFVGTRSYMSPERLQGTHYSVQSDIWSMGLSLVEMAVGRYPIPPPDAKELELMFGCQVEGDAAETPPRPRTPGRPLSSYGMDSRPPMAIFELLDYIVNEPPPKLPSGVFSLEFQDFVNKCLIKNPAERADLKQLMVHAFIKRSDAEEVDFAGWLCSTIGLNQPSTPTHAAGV
Sequence of Misshapen-like kinase 1 (Homo sapiens) (Q8N4C8 whole entry, looked up): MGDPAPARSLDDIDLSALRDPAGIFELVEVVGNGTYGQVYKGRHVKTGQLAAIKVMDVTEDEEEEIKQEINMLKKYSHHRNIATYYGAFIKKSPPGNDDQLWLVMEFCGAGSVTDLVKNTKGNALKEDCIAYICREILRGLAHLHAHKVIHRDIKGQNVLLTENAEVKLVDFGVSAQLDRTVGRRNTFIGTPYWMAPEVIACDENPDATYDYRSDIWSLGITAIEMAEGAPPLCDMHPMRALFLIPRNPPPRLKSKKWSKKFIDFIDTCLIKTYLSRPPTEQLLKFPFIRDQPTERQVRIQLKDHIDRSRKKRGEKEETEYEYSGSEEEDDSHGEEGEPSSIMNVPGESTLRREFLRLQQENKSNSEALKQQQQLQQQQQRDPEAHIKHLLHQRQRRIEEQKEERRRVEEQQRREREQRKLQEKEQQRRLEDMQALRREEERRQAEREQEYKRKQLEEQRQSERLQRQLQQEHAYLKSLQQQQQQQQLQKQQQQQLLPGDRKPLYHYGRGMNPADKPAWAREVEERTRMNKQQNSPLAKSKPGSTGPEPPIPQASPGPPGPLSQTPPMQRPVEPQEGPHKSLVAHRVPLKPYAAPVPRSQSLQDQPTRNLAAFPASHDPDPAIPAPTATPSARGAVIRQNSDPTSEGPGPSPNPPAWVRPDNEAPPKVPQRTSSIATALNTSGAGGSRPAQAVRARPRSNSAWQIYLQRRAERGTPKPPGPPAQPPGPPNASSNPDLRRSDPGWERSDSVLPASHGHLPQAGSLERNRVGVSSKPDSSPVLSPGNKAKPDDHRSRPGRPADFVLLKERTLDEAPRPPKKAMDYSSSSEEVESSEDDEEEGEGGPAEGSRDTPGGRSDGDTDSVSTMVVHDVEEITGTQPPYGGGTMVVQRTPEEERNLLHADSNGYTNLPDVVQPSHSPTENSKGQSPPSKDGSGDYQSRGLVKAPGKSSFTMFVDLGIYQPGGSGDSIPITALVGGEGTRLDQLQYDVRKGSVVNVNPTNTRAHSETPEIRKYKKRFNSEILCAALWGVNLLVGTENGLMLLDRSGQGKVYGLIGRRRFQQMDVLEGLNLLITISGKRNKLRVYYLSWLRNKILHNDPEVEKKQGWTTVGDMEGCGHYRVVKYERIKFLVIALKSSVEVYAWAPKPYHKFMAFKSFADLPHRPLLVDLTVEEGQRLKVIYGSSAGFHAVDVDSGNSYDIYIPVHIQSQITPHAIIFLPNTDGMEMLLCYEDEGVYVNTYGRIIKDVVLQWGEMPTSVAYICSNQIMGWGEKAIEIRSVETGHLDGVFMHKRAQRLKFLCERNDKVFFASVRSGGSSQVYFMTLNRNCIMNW

C[C@H]1COc2c(NCCCn3cccn3)c(F)c(N)c3c(=O)c(C(=O)O)cn1c23
< 35%: [1] | [2] | [3] | [4] | [5] | [6] | [7]

C[C@H]1COc2c(NCCCc3ccccn3)c(F)c(N)c3c(=O)c(C#N)cn1c23
< 35%: [1] | [2] | [3] | [4] | [5] | [6] | [7]

C[C@H]1COc2c(NCCCn3cccn3)c(F)c(N)c3c(=O)c(C#N)cn1c23
< 35%: [1] | [2] | [3] | [4] | [5] | [6] | [7]

C[C@H]1COc2c(NCCCc3ccccn3)c(F)c(N)c3c(=O)c(C(=O)O)cn1c23
< 35%: [1] | [2] | [3] | [4] | [5] | [6] | [7]
